Data reported in patent publication US9681664B2, “Macrocyclic picolinamides as fungicides” (Dow Agrosciences LLC, priority 2012, dated 2017).
Read-outs that look alike come from different tables or passages of the source.

Columns and labels:
[1] = tested on: Mycosphaerella graminicola; Anamorph: Septoria tritici; assay: Leaf blotch of wheat (SEPTTR) disease control on wheat seedlings; format: in vivo; details: for pest or weed control at 100 ppm / pest or weed control at 121.5 g/ha: Zymoseptoria tritici, Wheat Leaf Blotch; for pest or weed control at 100 ppm: high volume application; for pest or weed control at 121.5 g/ha: low volume application, 121.5 g/H; for SEPTTR 1DP disease control / SEPTTR 3DC disease control: High volume application; for pest or weed control at 100 ppm / SEPTTR 1DP disease control / SEPTTR 3DC disease control: 100 ppm
Method in brief: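 Wheat seedlings (Yuma, first leaf emerged) sprayed to run-off with compound in acetone/water with 110 ppm Triton X-100, or track-sprayed as EC with 0.1% Trycol 5941. Septoria tritici spores inoculated before or after treatment. Dew chambers, then 20 °C greenhouse. Percent disease control derived from severity (0–100%) relative to untreated plants.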

[2] = tested on: Puccinia triticina; Synonym: Puccinia recondite f. sp. tritici; assay: Wheat brown rust (PUCCRT) disease control on wheat seedlings; format: in vivo; details: for pest or weed control at 100 ppm / pest or weed control at 121.5 g/ha: Puccinia triticina, Wheat Brown Rust; for pest or weed control at 100 ppm: high volume application; for pest or weed control at 121.5 g/ha: low volume application, 121.5 g/H; for PUCCRT 1DP disease control / PUCCRT 3DC disease control: High volume application; for pest or weed control at 100 ppm / PUCCRT 1DP disease control / PUCCRT 3DC disease control: 100 ppm
Method in brief: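 Acetone solutions diluted in nine volumes of water with 110 ppm Triton X-100 sprayed to run-off on first-leaf Yuma wheat seedlings (track spray: EC with 0.1% Trycol 5941). Puccinia triticina spores inoculated before or after treatment; overnight dark dew at 22° C., 100% RH, then greenhouse at 24° C. for disease development.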

[3] = 24 h, 1 Day Protectant, read-out: Disease Control SEPTTR 1 DP 100 ppm
[4] = 24 h, 1 Day Protectant, read-out: Disease Control SEPTTR 1 DP 121.5 g/H
[5] = 72 h, 3 Day Curative, read-out: Disease Control SEPTTR 3 DC 100 ppm
[6] = 72 h, 3 Day Curative, read-out: Disease Control SEPTTR 3 DC 121.5 g/H
[7] = 24 h, 1 Day Protectant, read-out: Disease Control PUCCRT 1 DP 100 ppm
[8] = 24 h, 1 Day Protectant, read-out: Disease Control PUCCRT 1 DP 121.5 g/H
[9] = 72 h, 3 Day Curative, read-out: Disease Control PUCCRT 3 DC 100 ppm
[10] = 72 h, 3 Day Curative, read-out: Disease Control PUCCRT 3 DC 121.5 g/H

Molecule	pest or weed control at 100 ppm [1, 3] [%]	pest or weed control at 121.5 g/ha [1, 4] [%]	pest or weed control at 100 ppm [1, 5] [%]	pest or weed control at 121.5 g/ha [1, 6] [%]	pest or weed control at 100 ppm [2, 7] [%]	pest or weed control at 121.5 g/ha [2, 8] [%]	pest or weed control at 100 ppm [2, 9] [%]	pest or weed control at 121.5 g/ha [2, 10] [%]	SEPTTR 1DP disease control ([1]; 1 Day Protectant)	SEPTTR 3DC disease control ([1]; 3 Day Curative)	PUCCRT 1DP disease control ([2]; 1 Day Protectant)	PUCCRT 3DC disease control ([2]; 3 Day Curative)
CCCO[C@H]1CCC[C@H](NC(=O)c2nccc(OC)c2OC(C)=O)C(=O)O[C@@H](C)[C@@H]1Oc1ccc(Br)cc1 [F285]	80 to 100	80 to 100	80 to 100	80 to 100	80 to 100	80 to 100	0 to 80	80 to 100				
CCCO[C@H]1CCC[C@H](NC(=O)c2nccc(OC)c2OC(C)=O)C(=O)O[C@@H](C)[C@@H]1Oc1cccc(Cl)c1 [F286]	80 to 100	80 to 100	80 to 100	80 to 100	80 to 100	80 to 100	80 to 100	0 to 80				
CCCO[C@H]1CCC[C@H](NC(=O)c2nccc(OC)c2OC(C)=O)C(=O)O[C@@H](C)[C@@H]1Oc1ccc(-c2ccccc2)cc1 [F287]	80 to 100	80 to 100	80 to 100	80 to 100	80 to 100	80 to 100	80 to 100	80 to 100				
C=C(C)c1ccc(O[C@H]2[C@H](C)OC(=O)[C@@H](NC(=O)c3nccc(OC)c3O)CCC[C@@H]2OCCC)cc1 [F288]	80 to 100		80 to 100		80 to 100		80 to 100					
C=C(C)c1ccc(O[C@H]2[C@H](C)OC(=O)[C@@H](NC(=O)c3nccc(OC)c3OC(C)=O)CCC[C@@H]2OCCC)cc1 [F289]	80 to 100	80 to 100	80 to 100	80 to 100	80 to 100	80 to 100	80 to 100	80 to 100				
CCCOC(=O)O[C@H]1CCC[C@H](NC(=O)c2nccc(OC)c2O)C(=O)O[C@@H](C)[C@@H]1Oc1cc(C)cc(C)c1 [F290]	0 to 80		0 to 80		80 to 100		80 to 100					
CCCOC(=O)O[C@H]1CCC[C@H](NC(=O)c2nccc(OC)c2OC(C)=O)C(=O)O[C@@H](C)[C@@H]1Oc1cc(C)cc(C)c1 [F291]	80 to 100		80 to 100		80 to 100		0 to 80					
N-[(3S,7S,8S,9S)-7,8-dibenzyloxy-9-methyl-2-oxo-oxonan-3-yl]-3-hydroxy-4-methoxypyridine-2-carboxamide [F15]									A (80-100)	A (80-100)	A (80-100)	A (80-100)
[2-[[(3S,7S,8S,9S)-7-(cyclopentoxy)-9-methyl-2-oxo-8-propoxy-oxonan-3-yl]carbamoyl]-4-methoxy-3-pyridyl]3-methoxypropanoate [F19]									A (80-100)	A (80-100)	A (80-100)	A (80-100)
[2-[[(3S,7S,8S,9S)-8-isobutoxy-9-methyl-7-(2-methylallyloxy)-2-oxo-oxonan-3-yl]carbamoyl]-4-methoxy-3-pyridyl]acetate [F18]									A (80-100)	A (80-100)	A (80-100)	A (80-100)
[4-methoxy-2-[[(3S,7S,8S,9S)-9-methyl-7,8-bis(2-methylallyloxy)-2-oxo-oxonan-3-yl]carbamoyl]-3-pyridyl]oxymethyl acetate [F16]									A (80-100)	A (80-100)	A (80-100)	A (80-100)
[4-methoxy-2-[[(3S,7S,8S,9S)-9-methyl-7,8-bis(2-methylallyloxy)-2-oxo-oxonan-3-yl]carbamoyl]-3-pyridyl]oxymethyl-2-methylpropanoate [F17]									A (80-100)	A (80-100)	A (80-100)	A (80-100)
